Measured values published in patent US20230114241A1, “METHODS OF TREATING EPILEPSY USING THE SAME” (Trevena, Inc., priority 2019, published 2023).

target: human sphingosine-1-phosphate receptor 1 (S1P1) (Homo sapiens, UniProt P21453); assay: Inhibition of cAMP production (HTRF cAMP HiRange), S1P1 CHO-K1 cells; assay type: cell-based; conditions: inhibition of cAMP production, S1P1; read-out: hS1P1 CAMP pEC50 (converted)
In short: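 CHO-K1 cells co-expressing human S1P1 (C-terminal ProLink tag) and EA-β-arrestin2, plated overnight; after 30 min compound incubation at 37 °C, intracellular cAMP measured by HTRF TR-FRET following 1 h at room temperature. Values normalized to fingolimod.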

human sphingosine-1-phosphate receptor 1 (S1P1), sequence (P21453 whole entry): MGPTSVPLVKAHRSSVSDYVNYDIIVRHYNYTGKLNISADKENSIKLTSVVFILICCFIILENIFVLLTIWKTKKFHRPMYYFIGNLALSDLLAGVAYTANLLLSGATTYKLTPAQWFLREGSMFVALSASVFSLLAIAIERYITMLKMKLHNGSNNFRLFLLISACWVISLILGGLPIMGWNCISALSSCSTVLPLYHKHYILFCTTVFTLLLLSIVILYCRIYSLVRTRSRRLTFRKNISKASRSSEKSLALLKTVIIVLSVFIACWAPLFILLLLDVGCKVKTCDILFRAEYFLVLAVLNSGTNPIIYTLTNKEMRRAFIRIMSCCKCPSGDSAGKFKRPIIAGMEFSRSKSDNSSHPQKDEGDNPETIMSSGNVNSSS

EC50 [nM]	Structure (SMILES)
< 316	COc1ccncc1-c1nc(-c2ccc3c(c2)nnn3C(C)C)no1 [Compound 605, 3-(1-isopropyl-1H-benzo[d][1,2,3]triazol-5-yl)-5-(4-methoxy-pyridin-3-yl)-1,2,4-oxadiazole]
< 316	CCC1(CC)CC(=O)c2cc(-c3nc(-c4cncc(NS(C)(=O)=O)c4)no3)ccc2O1 [Compound 545, N-(5-(5-(2,2-diethyl-4-oxochroman-6-yl)-1,2,4-oxadiazol-3-yl)pyridin-3-yl)methanesulfonamide]
> 316	Cc1ccncc1-c1nc(-c2ccc3c(c2)nnn3C(C)(C)CO)no1 [Compound 625, 2-methyl-2-(5-(5-(4-methylpyridin-3-yl)-1,2,4-oxadiazol-3-yl)-1H-benzo[d] [1,2,3]triazol-1-yl)propan-1-ol]
< 316	CC(C)Oc1ccc(-c2ccc(-c3ccc4c(c3)nnn4C(C)C)cc2)cc1C#N [Compound 506, 4-isopropoxy-4′-(1-isopropyl-1H-benzo[d][1,2,3]triazol-5-yl)-[1,1′-biphenyl]-3-carbonitrile]
> 316	CC(C)(O)Cn1nnc2cc(-c3nc(-c4ccc5nc[nH]c5c4)no3)ccc21 [Compound 501, 1-{5-[3-(1H-1,3-benzo-diazol-6-yl)-1,2,4-oxadiazol-5-yl]-1H-1,2,3-benzotriazol-1-yl}-2-methylpropan-2-ol]
> 316	CC(C)n1nnc2cc(-c3nc4c(Cl)cccc4o3)ccc21 [Compound 427, 4-chloro-2-(1-isopropyl-1H-benzo[d][1,2,3]triazol-5-yl)benzo[d]oxazole]
< 316	CC(C)n1nnc2cc(-c3c[nH]c(-c4ccccc4)c3)ccc21 [Compound 543, 5-(5-phenyl-1H-pyrrol-3-yl)-1-(propan-2-yl)-1H-1,2,3-benzotriazole]
> 316	CC(C)Cn1nnc2cc(-c3nc4ccncc4o3)ccc21 [Compound 504, 2-(1-isobutyl-1H-benzo[d][1,2,3]triazol-5-yl)oxazolo[5,4-c]pyridine]

same assay, conditions: inhibition of cAMP production; potency; read-out: hS1P1 CAMP pEC50 (converted)

Structure (SMILES)	EC50 [nM]
Cc1ccncc1-c1noc(-c2ccc3c(c2)nnn3C(C)C)n1 [Compound 101, 5-[3-(4-methylpyridin-3-yl)-1,2,4-oxadiazol-5-yl]-1-(propan-2-yl)-1H-1,2,3-benzotriazole]	< 316
CC(C)n1nnc2cc(-c3nc(-c4ccc(OCc5ccccc5)cc4)no3)ccc21 [Compound 53, 5-{3-[4-(benzyloxy)phenyl]-1,2,4-oxadiazol-5-yl}-1-(propan-2-yl)-1H-1,2,3-benzotriazole]	> 316
CCC1(CC)CC(=O)c2cc(-c3nc(-c4ccc(O)nc4)no3)ccc2O1 [Compound 105, 2,2-diethyl-6-[3-(6-hydroxy-3-pyridyl)-1,2,4-oxadiazol-5-yl]chroman-4-one]	> 316
COc1ccc(-c2noc(-c3ccc4c(c3)nnn4C(C)C)n2)c2ccccc12 [Compound 129, 5-[3-(4-methoxy-naphthalen-1-yl)-1,2,4-oxadiazol-5-yl]-1-(propan-2-yl)-1H-1,2,3-benzotriazole]	> 316
CCC1(CC)CC(=O)c2cc(-c3nc(-c4ccc(S(N)(=O)=O)cc4)no3)ccc2O1 [Compound 106, 4-(5-(2,2-diethyl-4-oxochroman-6-yl)-1,2,4-oxadiazol-3-yl)benzenesulfonamide]	< 316
Cc1cnc(-c2noc(-c3ccc4c(c3)nnn4C3CCOCC3)n2)cn1 [Compound 6, 5-[3-(5-methylpyrazin-2-yl)-1,2,4-oxadiazol-5-yl]-1-(oxan-4-yl)-1H-1,2,3-benzotriazole]	> 316
Cc1oc(-c2ccc3c(c2)nnn3C(C)C)nc1-c1ccc(Cl)cc1 [Compound 50, 5-[4-(4-chlorophenyl)-5-methyl-1,3-oxazol-2-yl]-1-(propan-2-yl)-1H-1,2,3-benzotriazole]	> 316
CCC1(CC)CC(=O)c2cc(-c3nc(-c4ccc(C(N)=O)cc4)no3)ccc2O1 [Compound 179, 4-(5-(2,2-diethyl-4-oxochroman-6-yl)-1,2,4-oxadiazol-3-yl)benzamide]	< 316
CC(C)n1nnc2cc(-c3nc(-c4ccccc4)no3)ccc21 [Compound 79, 5-(3-phenyl-1,2,4-oxadiazol-5-yl)-1-(propan-2-yl)-1H-1,2,3-benzotriazole]	< 316
FC(F)(F)c1cc(-c2noc(-c3ccc4c(c3)nnn4C3CCCC3)n2)ccc1OCc1cccnc1 [Compound 4, 1-cyclopentyl-5-{3-[4-(pyridin-3-ylmethoxy)-3-(trifluoromethyl)phenyl]-1,2,4-oxadiazol-5-yl}-1H-1,2,3-benzotriazole]	> 316
Cc1cc(C)cc(-c2noc(-c3ccc4c(c3)nnn4C3CCCCC3)n2)c1 [Compound 158, 1-cyclohexyl-5-[3-(3,5-dimethylphenyl)-1,2,4-oxadiazol-5-yl]-1H-1,2,3-benzotriazole]	> 316
COc1cc(-c2nc(-c3ccc4c(c3)nnn4C(C)C)no2)ccn1 [Compound 116, 3-(1-isopropyl-1H-benzo[d][1,2,3]triazol-5-yl)-5-(2-methoxypyridin-4-yl)-1,2,4-oxadiazole]	> 316
O=C1CC2(CCC(F)(F)CC2)Oc2ccc(-c3nc(-c4cccnc4)no3)cc21 [Compound 36, 4′,4′-difluoro-6-[3-(pyridin-3-yl)-1,2,4-oxadiazol-5-yl]-3,4-dihydrospiro[1-benzo-pyran-2,1′-cyclohexane]-4-one]	> 316
COc1cc(C)c(-c2noc(-c3ccc4c(c3)nnn4C(C)C)n2)c(OC)c1 [Compound 136, 5-[3-(2,4-dimethoxy-6-methylphenyl)-1,2,4-oxadiazol-5-yl]-1-(propan-2-yl)-1H-1,2,3-benzotriazole]	> 316
CCC1(CC)CC(=O)c2cc(-c3nc(-c4ccncc4)no3)ccc2O1 [Compound 27, 2,2-diethyl-6-[3-(pyridin-4-yl)-1,2,4-oxadiazol-5-yl]-3,4-dihydro-2H-1-benzopyran-4-one]	> 316
CC(C)n1nnc2cc(-c3nc(-c4ccccc4Br)co3)ccc21 [Compound 183, 5-[4-(2-bromophenyl)-1,3-oxazol-2-yl]-1-(propan-2-yl)-1H-1,2,3-benzotriazole]	< 316

More lines, now with the values ahead:

EC50 [nM]	Structure (SMILES)
< 316	CCC1(CC)CC(=O)c2cc(-c3nc(-c4ccncc4C(F)(F)F)no3)ccc2O1 [Compound 313, 2,2-diethyl-6-(3-(3-(trifluoromethyl)pyridin-4-yl)-1,2,4-oxadiazol-5-yl)chroman-4-one]
< 316	C=CCNc1ccc(-c2nc(-c3ccc4[nH]ccc4c3)no2)cc1C#N [Compound 208, 5-(3-(1H-indol-5-yl)-1,2,4-oxadiazol-5-yl)-2-(allylamino) benzonitrile]
> 316	Cc1ccncc1-c1noc(-c2ccc3c(c2)nnn3CC(C)(C)O)n1 [Compound 206, 2-methyl-1-{5-[3-(4-methylpyridin-3-yl)-1,2,4-oxadiazol-5-yl]-1H-1,2,3-benzotriazol-1-yl}propan-2-ol]
> 316	O=C1CC2(CCCCC2)Oc2ccc(-c3nc(-c4ccncc4)no3)cc21 [Compound 280, 6-[3-(pyridin-4-yl)-1,2,4-oxadiazol-5-yl]-3,4-dihydrospiro[1-benzopyran-2,1′-cyclohexane]-4-one]
< 316	CCC1(CC)CC(=O)c2cc(-c3nc(-c4ccnc(C)c4)no3)ccc2O1 [Compound 315, 2,2-diethyl-6-(3-(2-methylpyridin-4-yl)-1,2,4-oxadiazol-5-yl)chroman-4-one]
> 316	COc1cccc(OC)c1-c1noc(-c2ccc3c(ccn3C(C)C)c2)n1 [Compound 325, 3-(2,6-dimethoxy-phenyl)-5-(1-isopropyl-indol-5-yl)-1,2,4-oxadiazole]
> 316	CC(C)CCn1nnc2cc(-c3nc(-c4ccccc4)no3)ccc21 [Compound 271, 1-(3-methylbutyl)-5-(3-phenyl-1,2,4-oxadiazol-5-yl)-1H-1,2,3-benzotriazole]
> 316	CC(C)Oc1ccccc1-c1noc(-c2ccc3c(cnn3C(C)C)c2)n1 [Compound 334, 3-(2-isopropoxy-phenyl)-5-(1-isopropyl-1H-indazol-5-yl)-1,2,4-oxadiazole]
< 316	CC(C)n1ncc2cc(-c3nc(-c4cccc5c4OCO5)no3)ccc21 [Compound 336, 3-(benzo[d][1,3]dioxol-4-yl)-5-(1-isopropyl-1H-indazol-5-yl)-1,2,4-oxadiazole]
> 316	COc1ccc(-c2noc(-c3ccc4c(c3)nnn4C(C)C)n2)cc1OC [Compound 230, 3-(3,4-dimethoxy-phenyl)-5-(1-isopropyl-1H-benzo[d][1,2,3]triazol-5-yl)-1,2,4-oxadiazole]
< 316	N#Cc1cc(-c2nnc(-c3ccc4[nH]cnc4c3)o2)ccc1NCCF [Compound 358, 5-[5-(1H-1,3-benzo-diazol-5-yl)-1,3,4-oxadiazol-2-yl]-2-[(2-fluoroethyl)amino] benzonitrile]
> 316	CC(C)n1nnc2cc(-c3noc(-c4ccc(F)cc4)n3)ccc21 [Compound 255, 5-(4-fluorophenyl)-3-(1-isopropyl-benzotriazol-5-yl)-1,2,4-oxadiazole]
> 316	CC(C)n1nnc2cc(-c3nc(-c4ccccn4)no3)ccc21 [Compound 241, 1-(propan-2-yl)-5-[3-(pyridin-2-yl)-1,2,4-oxadiazol-5-yl]-1H-1,2,3-benzotriazole]
> 316	COc1ccc(-c2noc(-c3ccc4c(c3)nnn4C3CCCCC3)n2)cc1C(F)(F)F [Compound 284, 1-cyclohexyl-5-{3-[4-methoxy-3-(trifluoro-methyl)phenyl]-1,2,4-oxadiazol-5-yl}-1H-1,2,3-benzotriazole]
> 316	Brc1ccccc1-c1nc(-c2ccc3c(c2)nnn3Cc2cccnc2)no1 [Compound 283, 5-(2-bromophenyl)-3-(1-(pyridin-3-ylmethyl)-1H-benzo[d][1,2,3]triazol-5-yl)-1,2,4-oxadiazole]
< 316	CC(C)n1ncc2cc(-c3nc(-c4ccccc4O)no3)ccc21 [Compound 333, 2-(5-(1-isopropyl-1H-indazol-5-yl)-1,2,4-oxadiazol-3-yl)phenol]
